Patent publication US20110224226A1, “COMPOSITIONS AND METHODS FOR INCREASING BLOOD PLATELET LEVELS IN HUMANS” (AKARX, Inc., priority 2006, published 2011)
Like-named read-outs stand apart in the source and are kept apart here.

Tests used:
[1] = test system: human cord blood (CB) CD34^+ cells; assay: differentiation of human cord blood CD34+ cells to megakaryocytes; format: cell-based; settings: concentration-dependent; maximum effect similar to that of rhTPO
[2] = Example 2 multi-dose study: pharmacokinetics; format: in vivo, human; settings: for Tmax at 14 days: read-out: mean time to maximum plasma concentration (Tmax); for Cmax at 14 days: read-out: mean maximum plasma concentration (Cmax)
Method: A double-blind, placebo-controlled, dose rising study was performed in healthy male and female volunteers. Each dose cohort received either placebo or active treatment as an oral suspension once daily for fourteen (14) consecutive days. The dose of study drug was prepared and administered as described in Example 1 above. The doses administered in this multiple dose study were based on the safety and tolerability assessment of the doses administered in Example 1.
Based on the results of Example 1, the starting dose was 3 mg. Based on the safety and tolerability results from Example 1, the dose was scheduled to be escalated to 10, 20, 50 and 100 mg per day for 14 consecutive days. Successive dose cohorts were not treated until the previous cohort completed 14 days of treatment and the safety follow-up visit on Day 21.

liver microsomal enzymes = assay: metabolism by mouse liver microsomal enzymes; format: in vitro ADME
[3] = in-vitro plasma protein binding, humans; format: in vitro ADME; settings: human, 0.05 to 50 μg/mL
Method: The in-vitro plasma protein binding of the drug of Formula I was independent of concentration over the concentration range of 0.05 to 50 μg/mL and was 87.2-89.1% in mice; 87.6-89.2% in rats; 88.3-92.0% in rabbits; […] in dogs; 97.0-97.6% in monkeys; and 96.3-96.6% in humans.

[4] = 4-week repeat dose toxicity in cynomolgus monkey; format: in vivo
[5] = both sexes, human, in vivo, oral, 3 mg once daily, Study Day 14, mean
[6] = both sexes, human, in vivo, oral, 10 mg once daily, Study Day 14, mean
[7] = both sexes, human, in vivo, oral, 20 mg once daily, Study Day 14, simulated data at steady-state

- AUC(0-t) ([2]; both sexes, human, in vivo, oral, 3 mg, 3 mg once daily, Study Day 1, mean, read-out: AUC0-last): 0.235 µg·h/mL
- Tmax ([2]; both sexes, human, in vivo, oral, 3 mg, 3 mg once daily, Study Day 1, median): 6 h
- AUC(0-t) ([2]; both sexes, human, in vivo, oral, 3 mg, 3 mg once daily, Study Day 14, mean, read-out: AUC0-last): 0.659 µg·h/mL
- Tmax ([2]; both sexes, human, in vivo, oral, 3 mg, 3 mg once daily, Study Day 14, median): 6 h
- AUC(0-t) ([2]; both sexes, human, in vivo, oral, 10 mg, 10 mg once daily, Study Day 1, mean, read-out: AUC0-last): 0.841 µg·h/mL
- Tmax ([2]; both sexes, human, in vivo, oral, 10 mg, 10 mg once daily, Study Day 1, median): 6 h
- AUC(0-t) ([2]; both sexes, human, in vivo, oral, 10 mg, 10 mg once daily, Study Day 14, mean, read-out: AUC0-last): 2.36 µg·h/mL
- Tmax ([2]; both sexes, human, in vivo, oral, 10 mg, 10 mg once daily, Study Day 14, median): 4.5 h
- AUC(0-t) ([2]; both sexes, human, in vivo, oral, 20 mg, 20 mg once daily, Study Day 1, mean, read-out: AUC0-last): 1.96 µg·h/mL
- Tmax ([2]; both sexes, human, in vivo, oral, 20 mg, 20 mg once daily, Study Day 1, median): 6 h
- Tmax ([2]; both sexes, human, in vivo, oral, 20 mg, 20 mg once daily, Study Day 14, median, simulated data at steady-state): 6 h
- AUC(0-t) ([2]; both sexes, human, in vivo, oral, 20 mg, 20 mg once daily, Study Day 14, simulated data at steady-state, read-out: AUC0-last): 3.61 µg·h/mL
- AUC(0-inf) [2, 5]: 0.804 µg·h/mL
- half-life [2, 5]: 18.2 h
- Cmax ([2]; both sexes, human, in vivo, oral, 3 mg once daily, Study Day 14, mean, read-out: Cmax, ss): 0.0256 µg/mL
- AUC(0-inf) [2, 6]: 2.87 µg·h/mL
- half-life [2, 6]: 18.1 h
- Cmax ([2]; both sexes, human, in vivo, oral, 10 mg once daily, Study Day 14, mean, read-out: Cmax, ss): 0.0941 µg/mL
- AUC(0-inf) [2, 7]: 7.15 µg·h/mL
- half-life [2, 7]: 20.8 h
- Cmax ([2]; both sexes, human, in vivo, oral, 20 mg once daily, Study Day 14, simulated data at steady-state, read-out: Cmax, ss): 0.205 µg/mL
- half-life at 14 days ([2]; both sexes, human, in vivo, oral, multi-dose study, independent of dose): 18 to 21 h
- Cmax ([2]; both sexes, human, in vivo, 3 mg once daily oral suspension, Study Day 1, mean, read-out: Cmax): 0.0148 µg/mL
- Cmax ([2]; both sexes, human, in vivo, 10 mg once daily oral suspension, Study Day 1, mean, read-out: Cmax): 0.0532 µg/mL
- Cmax ([2]; both sexes, human, in vivo, 20 mg once daily oral suspension, Study Day 1, mean, read-out: Cmax): 0.121 µg/mL
- AUC(0-t) ([2]; both sexes, human, plasma, oral, 3 mg, 3 mg dose administered over about fourteen (14) days, human, read-out: mean AUC0-last): ~0.659 µg·h/mL
- Tmax at 14 days ([2]; both sexes, human, plasma, oral, 3 mg, 3 mg dose administered over about fourteen (14) days, human): ~6 h
- AUC(0-t) ([2]; both sexes, human, plasma, oral, 10 mg, 10 mg dose administered over about fourteen (14) days, human, read-out: mean AUC0-last): ~2.36 µg·h/mL
- Tmax at 14 days ([2]; both sexes, human, plasma, oral, 10 mg, 10 mg dose administered over about fourteen (14) days, human): ~4.4 h
- AUC(0-t) ([2]; both sexes, human, plasma, oral, 20 mg, 20 mg dose administered over about fourteen (14) days, human, Table 3: simulated data at steady-state, read-out: mean AUC0-last): ~3.61 µg·h/mL
- Tmax at 14 days ([2]; both sexes, human, plasma, oral, 20 mg, 20 mg dose administered over about fourteen (14) days, human, Table 3: simulated data at steady-state): ~5.5 h
- Cmax at 14 days ([2]; both sexes, plasma, oral, 3 mg dose administered over about fourteen (14) days, human): ~0.025 µg/mL
- Cmax at 14 days ([2]; both sexes, plasma, oral, 10 mg dose administered over about fourteen (14) days, human): ~0.094 µg/mL
- Cmax at 14 days ([2]; both sexes, plasma, oral, 20 mg dose administered over about fourteen (14) days, human, Table 3: simulated data at steady-state): ~0.204 µg/mL
- metabolism by liver microsomal enzymes (liver microsomal enzymes): does not appear to be metabolized
- fraction unbound [3]: 0.034 to 0.037
SMILES: O=C(Nc1nc(-c2cc(Cl)cs2)c(N2CCN(C3CCCCC3)CC2)s1)c1cnc(N2CCC(C(=O)O)CC2)c(Cl)c1 [Formula I, 1-(3-chloro-5-{[4-(4-chlorothiophen-2-yl)-5-(4-cyclohexylpiperazin-1-yl)thiazol-2-yl]carbamoyl}pyridin-2-yl)piperadine-4-carboxylic acid]
- differentiation of human cord blood CD34+ cells to human megakaryocytes [1]: promotes the differentiation
- dose proportionality of Cmax and AUC ([2]; following single and repeat administration, 3 mg to 20 mg): increased proportionally with respect to dose
- changes in the gastric mucosa ([4]; cynomolgus monkey, repeat dosing 4 weeks, 3, 10, 100, 1000 mg/kg/day): necrosis of the surface epithelium and atrophy of the fundic glands and edema and inflammatory infiltrates in the lamia propria of the fundus
- muscle degeneration/necrosis in femoral, lower thigh or multifides muscles ([4]; cynomolgus monkey, repeat dosing 4 weeks, lesions partly present before dosing and in a control): one or more monkeys in all dose groups
- CK and aldolase levels ([4]; cynomolgus monkey, elevated levels also present prior to the first dose): Elevated levels of CK and aldolase
- reversibility of gastric mucosa changes ([4]; high dose monkeys, on drug withdrawal): not entirely
